Series [1] can be described thus: Peptide storage stability by HPLC. It is filed as physicochemical. The settings on record: lyophilized, open air, room temperature, 4 months. The procedure:
LK-513 (Ph(CH2)3CO-His-(D-4-Bip)-Arg-NHMe) was tested for stability and degradation over a storage period. The peptide was stored in a lyophilized form in open air at room temperature for 4 months. After 4 months, HPLC was performed on a test sample of the peptide in order to measure degradation, using standard methods (FIG. 1). […] Without being bound by theory, it is believed that the enhanced stability is a product of the absence of amide bonds between natural L-L-amino acids in the tripeptides and the existence of only one amide bond between natural amino acids in the tetrapeptides (Arg-Trp). Amide bonds between non-natural D- and natural L-amino acids are less prone to chemical and enzymatic hydrolysis, as evidenced by the FIG. 1. Further, the bulk and hydrophobicity of the X4 amino acid (D-Phe or a bulky hydrophobic analog thereof, such as D-4-Bip in the case of LK-513) shield the polar amid bonds of the peptide from chemical and enzymatic degradation.

For series [2], the target named is T1, MC1R (Homo sapiens, UniProt Q01726). In words: Stimulation of cAMP formation in cultured human melanocytes. It is filed as cell-based. The arrangement: endogenous in cells; host or cells: cultured human melanocytes. The procedure: Peptides were tested on cultured human melanocytes for their capacity to activate MC1R, as measured by stimulating cAMP formation. After 45 minutes of treatment with different concentrations of peptides, cAMP levels were measured using a I^125-labeled radioimmunoassay kit.
T1 sequence (Q01726 whole entry): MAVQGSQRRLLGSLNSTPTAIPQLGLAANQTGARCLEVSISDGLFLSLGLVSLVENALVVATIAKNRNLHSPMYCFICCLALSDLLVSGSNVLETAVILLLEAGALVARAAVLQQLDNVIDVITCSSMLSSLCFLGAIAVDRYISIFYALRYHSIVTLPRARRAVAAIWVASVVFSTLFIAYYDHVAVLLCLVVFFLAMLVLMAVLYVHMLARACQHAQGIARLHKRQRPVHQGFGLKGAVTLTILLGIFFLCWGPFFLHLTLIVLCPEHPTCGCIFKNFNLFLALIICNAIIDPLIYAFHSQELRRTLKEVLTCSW
(§1) Peptides were tested as described in Example 4 above on cultured human melanocytes for their capacity to activate MC1R, as measured by stimulating cAMP formation, and for their capacity for stimulating tyrosinase activity, the rate-limiting enzyme for melanin synthesis. The tested peptides were synthesized according to the formula: Ar(CH2)mX^1—X^2—CO—X^3—X^4—X^5-(Trp)n-NX^6R wherein X^1 and X^2 are absent, X^3 is His, X^5 is Arg, and X^6 is H. X^4 amino acids were in the D-stereoisomer form, unless otherwise noted.

A further series relates to tyrosinase. In words: Stimulation of tyrosinase activity in cultured human melanocytes. It is filed as cell-based. Here is the method: Peptides were tested on cultured human melanocytes for their capacity for stimulating tyrosinase activity, the rate-limiting enzyme for melanin synthesis. Melanocytes were treated every other day, for a total of 6 days, with increasing concentrations of peptides. Medium containing H^3-tyrosine, the substrate for tyrosinase, was added to melanocytes 24 hours before the end of the 6-day treatment. Tyrosinase activity was measured by determining the amount of ^3H2O generated as […] is catalyzed by tyrosinase for melanin synthesis.
as §1

The target of series [3] is T1, MC1R. In words: cAMP stimulation in heterologous cells expressing hMC1R. It is filed as cell-based. The arrangement: expressed in transfected cells. Here is the method:
(§2) Receptor selectivity of peptide agonists for hMC1R was determined by stimulation of cAMP in heterologous cells expressing different human melanocortin receptors (MC1R, MC3R, MC4R, and MC5R).

The target of another series is T2, hMC4R (Homo sapiens, UniProt P32245).
T2 construct: expressed in transfected cells
T2 sequence (P32245 whole entry): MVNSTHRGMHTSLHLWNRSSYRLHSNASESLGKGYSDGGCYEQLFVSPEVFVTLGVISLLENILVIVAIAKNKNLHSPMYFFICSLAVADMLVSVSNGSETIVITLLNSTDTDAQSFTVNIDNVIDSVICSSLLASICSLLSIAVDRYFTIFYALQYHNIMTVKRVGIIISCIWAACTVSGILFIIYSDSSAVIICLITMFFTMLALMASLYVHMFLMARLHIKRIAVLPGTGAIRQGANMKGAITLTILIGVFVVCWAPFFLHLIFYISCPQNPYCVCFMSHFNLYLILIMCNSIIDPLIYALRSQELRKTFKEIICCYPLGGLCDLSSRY
In words: cAMP stimulation in heterologous cells expressing hMC4R. It is filed as cell-based. Here is the method: as §2

The target of a further series is T3, hMC5R (Homo sapiens, UniProt P33032).
T3 construct: expressed in transfected cells
T3 sequence (P33032 whole entry): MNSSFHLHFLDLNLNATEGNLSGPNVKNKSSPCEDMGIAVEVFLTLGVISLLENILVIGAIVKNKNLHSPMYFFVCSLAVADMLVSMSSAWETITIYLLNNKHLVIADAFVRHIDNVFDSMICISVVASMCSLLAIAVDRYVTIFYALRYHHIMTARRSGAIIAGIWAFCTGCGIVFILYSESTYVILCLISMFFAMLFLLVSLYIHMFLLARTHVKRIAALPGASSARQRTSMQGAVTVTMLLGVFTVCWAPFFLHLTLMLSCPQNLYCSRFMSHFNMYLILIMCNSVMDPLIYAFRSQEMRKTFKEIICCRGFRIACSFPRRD
In words: cAMP stimulation in heterologous cells expressing hMC5R. It is filed as cell-based. The procedure:
as §2

Another series has as its target T4, hMC3R (Homo sapiens, UniProt P41968).
T4 construct: expressed in transfected cells
In words: cAMP stimulation in heterologous cells expressing hMC3R. It is filed as cell-based. Here is the method:
as §2

The test system of the next series is human melanocytes. In words: Potency in human melanocytes. It is filed as cell-based.
A further series concerns mouse MCRs. Conditions: cited from earlier work.

Data on two compounds can be found in US10301355B2, “Method of using pharmaceutical compositions comprising selective peptide-based agonists of melanocortin 1 receptor” (University of Cincinnati, priority 2012, dated 2019).

Entries after “also recorded” stand apart in the source; their conditions may differ. Bounds are passed on as bounds.

T4 sequence (P41968 whole entry): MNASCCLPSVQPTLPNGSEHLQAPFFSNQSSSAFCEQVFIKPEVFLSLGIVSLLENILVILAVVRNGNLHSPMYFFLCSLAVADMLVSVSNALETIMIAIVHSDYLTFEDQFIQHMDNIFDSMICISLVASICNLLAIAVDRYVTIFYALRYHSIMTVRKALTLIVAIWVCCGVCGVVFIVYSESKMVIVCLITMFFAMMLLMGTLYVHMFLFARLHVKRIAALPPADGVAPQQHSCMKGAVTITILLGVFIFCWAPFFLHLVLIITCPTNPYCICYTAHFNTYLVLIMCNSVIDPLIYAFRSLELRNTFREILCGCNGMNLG

As for `CNC(=O)[C@H](CCCNC(=N)N)NC(=O)[C@@H](Cc1ccc(-c2ccccc2)cc1)NC(=O)[C@H](Cc1c[nH]cn1)NC(=O)CCCc1ccccc1` [LK-513, Ph(CH2)3CO-His-(D-4-Bip)-Arg-NHMe], the “stability and degradation on storage (HPLC)” value in series [1] was “highly stable and resistant to degradation, showing only a single HPLC peak; also recorded: highly stable and substantially free of degradation”. Besides, the “cAMP compared to 10 nM αMSH” value on MC1R [2] (cultured human melanocytes) was “<”. The “potency in stimulating cAMP formation, comparison” value at MC1R [2] (human melanocytes, 45 minutes of treatment) was “about ten times less potent than a-MSH; also recorded: about ten times less potent than α-MSH”. In the series with tyrosinase (human melanocytes, 6 days treatment), the “concentration at which significant stimulation of tyrosinase activity begins” value was 1 nM. Further, the “TA compared to 10 nM αMSH” value with tyrosinase (tyrosinase activity, cultured human melanocytes) is “<”. Further, the “potency in activation of MC1R compared with MT-II” value at MC1R [3] is recorded as “about as potent as MT-II”. Also, the “HMC1R % MAX. ACTIVITY” value on MC1R [3] (cAMP, heterologous cells) worked out at 95%. For the same compound, the “binding of MC4R” value at hMC4R was “do not bind”. At hMC5R, the “binding of MC5R” value is “do not bind”. Moreover, at hMC3R, the “binding of MC3R” value is recorded as “do not bind”.

Regarding trans-4-HOC6H4CH═CHCO-His-D-Phe-Arg-NH2, the “potency in human melanocytes” value in the series on human melanocytes is “less potent in human melanocytes”. For the same compound, in the series on mouse MCRs, the “MC1R selectivity and potency compared to tripeptide LK-394” value was “moderately increased MC1R selectivity and potency”.
